Source: patent US20240376087A1, “PYRAZOLE AMIDE BASED COMPOUNDS AND USES AGAINST BREAST CANCER THEREOF” (COUNCIL OF SCIENTIFIC AND INDUSTRIAL RESEARCH AN INDIAN …, priority 2021, published 2024)
“Also recorded” adds a separate entry of the source.

Key:
[1] = test system: MDA MB 231 cells; experiment: Cytotoxicity studies by MTT assay; format: cell-based; details: Homo sapiens, 24 hrs, read-out: GI50 (50% growth inhibition value)
Protocol: (§1) The cells used for the study, human breast adenocarcinoma (MDA-MB-231) and normal human lung fibroblast cells ([…]) were procured from NCCS, Pune, India, and ATCC, VA, USA, respectively. Cells were maintained in standard culture conditions in DMEM supplemented with 10% FBS and 100 units/ml penicillin/streptomycin under 5% CO2 at 37° C. in a humidified incubator. After 2-3 passages, the cells were seeded on cell culture dishes and were used for different experiments.
A 10 mM stock solution of I-8 was prepared in DMSO and diluted with DMEM supplemented with 5% FBS for each experiment so that the DMSO concentration was <0.1% in the treated cells. Paclitaxel at a concentration of 50 nM was used as the positive control.
MTT assay was used for testing the cytotoxicity of NIIST-AC-1 in MDA MB 231 cells. 1×10^4 cells/well were seeded in 96 well culture plates and were treated with different concentrations of NIIST-AC-1 for 24 hrs. The percentage of viable cells were monitored based on the purple colour developed by MTT at 570 nm and from that the concentration of NIIST-AC-1 required for 50% inhibition of the viability was calculated as the GI50 value.

[2] = test system: normal human lung fibroblast cells (WI 30); experiment: Toxicity in normal fibroblast cells (phase contrast images); format: cell-based; details: normal fibroblast cells (WI30), FIG. 3
Protocol: as §1
Morphological analysis of the cells treated with NIIST-AC-1 at different concentrations were monitored using phase contrast microscope Nikon EclipseTS100 (Nikon Instruments Inc., Melville, NY, USA, Magnification 20×) and SEM (Zeiss EVO 18 Special Edition) at ×2k and ×5k magnification.

[3] = test system: MDA MB 231 cells; experiment: Phosphatidyl serine translocation by annexin V staining; format: cell-based, human; details: MDA MB 231, annexin V staining, 24 hrs
Protocol: The translocation of phosphatidyl serine to the outer leaflet of plasma membrane during apoptosis was studied by Annexin V-Cy3™ Apoptosis Detection Kit. After treatment with different concentrations of NIIST-AC-1 for 24 hrs, the cells were washed and stained with annexin V for 10 min. After the staining solution was removed, the binding buffer was added and the cells observed under a spinning disc fluorescent microscope (BD Biosciences), and images were taken using the software BD Atto Vision version 1.6.

[4] = test system: MDA MB 231 cells; experiment: Measurement of intracellular reactive oxygen species (FACS); format: cell-based, human; details: MDA MB 231, CM-H2DCFDA
Protocol: The upregulation of ROS upon treatment with NIIST-AC-1 was analyzed using the fluorescent probe CM-H2DCFDA (Sigma). After treatment, the cells were incubated DMEM containing CM-H2DCFDA at a final concentration of 5 μM at 37° C. for 30 min. The trypsinised cells were then suspended in PBA and analyzed using FACS (BD FACSAria II (BD Biosciences) at fluorescein isothiocyanate (FITC) range (excitation 495 nm, emission 529 nm bandpass filter). The mean fluorescence intensities of different groups were analyzed by BD FACSDiva ver 6.1.3 software and corrected for autofluorescence from unlabeled cells.

[5] = test system: MDA MB 231 cells; experiment: Measurement of mitochondrial membrane potential (JC-1); format: cell-based, human; details: MDA MB 231, JC-1, 24 h
Protocol: The cells were then treated with various concentrations of NIIST-AC-1 for 24 h. After removing the spent medium, 100 μl of freshly prepared JC-1 stain was added and samples were then incubated for 20 min in a CO2 incubator at 37° C. Immediately after the incubation, cells were observed under a spinning disc fluorescent microscope (BD Pathway 855), and images were taken using the software BD Atto Vision version 1.6.

[6] = test system: MDA MB 231 cells; experiment: Anoikis assay; format: cell-based, human; details: MDA MB 231, anoikis chamber, 48 hrs
Protocol: The effect of NIIST-AC-1 on anoikis resistance was analyzed using Anoikis Assay Kit by following the manufacturer's protocol. The cells were seeded in ultralow attachment plate 9anoikis chamber) after pretreating with different concentrations of NIIST-AC-1. After 48 hrs, the cells were observed under the phase-contrast microscope (Nikon Eclipse TS100) for observing the attachment and images were captured using NIS-Elements 3.21.00 imaging software. The viability of the cells was also measured by MTT assay.

[7] = test system: MDA MB 231 cells; experiment: Cell cycle analysis (PI flow cytometry, western blot); format: cell-based, human
Protocol: The distribution of cells in different phases of cell cycle was determined by flow cytometry after staining with propidium iodide. After treatment, the cells were harvested, ethanol fixed and stained with propidium iodide at 25° C. for 30 minutes. The cellular DNA content was measured with BD FACS Fortessa X-20 SORP according to detected signals in FL2 channel (excitation, 493 nm; emission, 636 nm) and data were analyzed with FloJo software, version 9. Approximately 10,000 cells were counted for each analysis, and the distribution of cells in each phase of the cell cycle was saved as histograms. Western blot analysis was done to study the expression profiles of various proteins involved in the cell cycle machinery.

[8] = test system: MMP-9; experiment: Gelatin zymography for MMP activity; format: cell-based, human; details: gelatin zymography of spent medium
Protocol: The activity of MMPs in the spent medium from the cell culture was allowed to react with the substrate gelatin impregnated in the SDS-PAGE gel. After electrophoresis, the gel was washed with Triton solution and incubated with activation buffer 50 mM Tris containing 0.2 M NaCl and 5 mM CaCl2) at 37° C. for 18-20 h for reaction to occur. The gel was stained with Coomassie Brilliant Blue solution and after destaining, gelatin cleaved zones by MMPs were observed as white clear zones which were imaged using ChemiDoc™ MP System with IMAGE LAB™ Software (Bio-Rad).

[9] = test system: EGFR; experiment: EGFR expression studies (immunofluorescence); format: cell-based, human; details: fluorescent images
Protocol: The expression of EGFR after treatment with NIIST-AC-1 was evaluated using indirect immunofluorescence. The cells after treatment were fixed with paraformaldehyde and incubated with primary antibody overnight. After washing the primary antibody, the cells were treated with alexa fluor conjugated secondary antibody for visualization. The cells were counterstained with DAPI for nuclear staining and were observed under a fluorescent microscope (IX83 inverted microscope; Olympus Life Science, cell Sens Dimension ver 3.1 software).

[10] = test system: MDA MB 231 cells; experiment: Growth inhibitory study of I-8 in combination with paclitaxel; format: cell-based, human; details: 5 μM I-8 in combination with paclitaxel

**Q.** `COc1cc(-c2cc(C(=O)NCc3cc(C(F)(F)F)cc(C(F)(F)F)c3)[nH]n2)cc(OC)c1OC` [I-8, N-(3,5-bis(trifluoromethyl)benzyl)-3-(3,4,5-trimethoxyphenyl)-1H-pyrazole-5-carboxamide] was tested. Which GI50 [1] did it give?
**A.** 15.1 µM

**Q.** And the “cytotoxicity in normal fibroblasts” value [2]?
**A.** without having cytotoxicity; also recorded: no toxic

**Q.** And the phosphatidyl serine translocation [3]?
**A.** phosphatidyl serine translocation

**Q.** What about the ROS generation [4] of the same molecule?
**A.** significant generation of ROS

**Q.** And the mitochondrial membrane potential [5]?
**A.** loss of mitochondrial membrane potential

**Q.** And the “detachment induced cell death (anoikis)” value [6]?
**A.** induced detachment induced cell death (anoikis)

**Q.** And the cell cycle arrest ([7]; MDA MB 231, PI labelling, FACS)?
**A.** cell cycle arrest at S phase

**Q.** What about the “cell cycle regulatory proteins cyclin B1, cyclin A2 and CDK” value ([7]; western blot) of the same molecule?
**A.** downregulated

**Q.** What about the MMP-9 activity [8] of the same molecule?
**A.** reduced

**Q.** And the EGFR expression [9]?
**A.** reduction in EGFR expression

**Q.** And the “lowering of paclitaxel concentration required for 50% growth inhibition” value [10]?
**A.** 10 times
